Assay results: US20260306460A1, “COMPOSITION FOR REMOVING AND INHIBITING SENESCENT CELLS, AND USES THEREOF” (LIFECEUTIX CO., LTD., priority 2023, published 2026)

Key:
proliferating A549 cells = assay: Survival of proliferating A549 cells treated with supernatant from death-induced cancer cells, Example 14; type: cell-based, human; details: for viability at 30 µM: Homo sapiens
Method: In the same way as Examples 12 and 13, senescence of cancer (A549) cells was induced by treatment with doxorubicin or the control group (DMSO), and the cells were cultured. The cells were treated with LX-405 at a concentration of 30 μM. 3 days later, cell viability was measured using CellTiter-Glo Luminescent Cell Viability Assay (Promega) or an optical microscope. In the same manner as in Example 13, the medium supernatants comprising secreted fluid from normally proliferating and senescent cancer cells was obtained. Normally proliferating and senescent-induced cancer cells were treated with the medium supernatants.

[1] = test system: obesity-induced aged C57BL6J mice; assay: p16 and p21 mRNA in obesity-aged mice, Example 23-2, Table 42; type: in vivo, mouse; details: 360 mg/kg oral daily for 21 days, untreated 100%
Method: (§1) 15-week-old male C57BL6J mice (The Jackson Laboratory) were induced to obesity by a high-fat diet using the same method as in Example 9-1 WO2023-085787 A1. After acclimation to the experimental environment for one week, the mice were randomly assigned to experimental and control groups. […] LX-3002 was mixed in distilled water with 4% DMSO, 30% PEG300, and 5% Tween80 and administered orally at a concentration of 10 mg/kg daily for 21 days. LX-5701 was mixed in PBS and administered orally at a concentration of 360 mg/kg daily for 21 days. LX-6807 was mixed in saline and administered intraperitoneally at a concentration of 1 mg/kg daily for 21 days. The control group received only the solution in the same volume. After the end of drug administration, the methods described in each example below were performed.
Mice were sacrificed using the same method as in Example 7-2 of WO2023-085787 A1. RNA was extracted from organ tissues from each site, and the synthesized cDNA was used for qRT-PCR (quantitative real-time PCR) analysis. […] The mRNA levels of p16 and p21 after obesity induction were calculated as 100% and compared with the mRNA levels of p16 and p21 after LX-5701 treatment.

[2] = test system: doxorubicin-induced aged C57BL6J mice; assay: SASP mRNA (IL6, CXCL1, CXCL10, IL1B) in doxorubicin-aged mice, Example 22-6, Table 35; type: in vivo, mouse; details: untreated aged = 100%
Method: (§2) Eight-week-old male C57BL6J mice (KRIBB Laboratory Animal Resource Center) were acclimated to the experimental environment for one week. Afterwards, the anticancer agent doxorubicin was administered intraperitoneally at a concentration of 10 mg/kg, inducing aging for more than 10 days. The aging-induced mice were randomly assigned to experimental and control groups. LX-403 was mixed with a 10% ethanol solution of PEG400 and administered orally at a concentration of 25 mg/kg or intradermally at a concentration of 1 μM for 21 days. LX-1801 was mixed in distilled water with 4% DMSO, 30% PEG300, and 5% Tween80 and administered intradermally at a concentration of 0.4 μM daily for 21 days. LX-2001 was mixed in PBS and administered intradermally at a concentration of 2 μM daily for 21 days. LX-2002 was mixed in distilled water with 4% DMSO, 30% PEG300, and 5% Tween80 and administered intradermally at a concentration of 2 μM daily for 21 days. […] LX-2005 was mixed in distilled water with 4% DMSO, 30% PEG300, and 5% Tween80 and administered intradermally at a concentration of 90 μM daily for 21 days. LX-2007 was mixed in distilled water with 4% DMSO, 30% PEG300, and 5% Tween80 and administered intradermally at a concentration of 90 μM daily for 21 days. […] LX-3002 was mixed in distilled water with 4% DMSO, 30% PEG300, and 5% Tween80 and administered orally at a concentration of 10 mg/kg daily for 21 days. […] LX-5411 was mixed in 5% phosphate-buffered saline (PBS) and administered orally at a concentration of 10 mg/kg daily for 21 days or intradermally at a concentration of 3 μM. LX-5701 was mixed in PBS and administered orally at a concentration of 360 mg/kg daily for 21 days. LX-6807 was mixed in saline and administered intraperitoneally at a concentration of 1 mg/kg daily for 21 days. The control group received only the solution in the same volume. After the end of drug administration, the methods described in each example below were performed.
Using cDNA synthesized in the same manner as in Example 7-6 of WO2023-085787 A1, qRT-PCR was performed and analyzed for senescence-associated secretory factors (SASPs) like IL6, CXCL1, CXCL10, IL1B, etc. […] The mRNA amount of each factor after aging induction was calculated as 100% and compared with the mRNA amount of each factor after LX-5701 treatment.

[3] = test system: obesity-induced aged C57BL6J mice; assay: Serum IL6 and activin A (ELISA) in obesity-aged mice, Example 23-3, Table 43; type: in vivo, mouse; details: 360 mg/kg oral daily for 21 days
Method: as §1
The levels of IL6 and activin A, senescence-associated secretory factors (SASP), were measured in serum collected from mice using the same method as in Example 7-5 of WO2023-085787 A1 using an enzyme-linked immunosorbent assay (ELISA Kit, R&D Systems).

[4] = test system: doxorubicin-induced aged C57BL6J mice; assay: p16 and p21 mRNA in doxorubicin-aged mice, Example 22-2, Table 31; type: in vivo, mouse; details: untreated aged = 100%
Method: as §2
Mice were sacrificed using the same method as in Example 7-2 of WO2023-085787 A1. RNA was extracted from organ tissues of each site, and cDNA synthesized was used for qRT-PCR and analysis. […] The mRNA amounts of p16 and p21 after aging induction were calculated as 100% and compared with the mRNA amounts of p16 and p21 after LX-5701 treatment.

COC(=O)c1ccc([C@H]2c3[nH]c4ccccc4c3C[C@H](C(=O)OC)N2C(=O)CCl)cc1 [LX-405]
Survival (proliferating A549 cells; A549, supernatant from No Cells): 101.4 (±1.3) % | viability at 30 µM (proliferating A549 cells; A549, A549, supernatant from death-induced proliferating cells): 98.6% | viability at 30 µM (proliferating A549 cells; A549, A549, supernatant from death-induced senescent cells): 105%

O=C1C2CCN(CC2)C1CNC(=O)C(F)(F)F (stereo not drawn) [LX-5701]
p16 mRNA, Eye ([1]; Eye): 71% | p21 mRNA, Eye ([1]; Eye): 70% | p16 mRNA, Heart ([1]; Heart): 80% | p21 mRNA, Heart ([1]; Heart): 81% | p16 mRNA, Liver ([1]; Liver): 63% | p21 mRNA, Liver ([1]; Liver): 61% | p16 mRNA, Lung ([1]; Lung): 74% | p21 mRNA, Lung ([1]; Lung): 77% | p16 mRNA, Muscle ([1]; Muscle): 75% | p21 mRNA, Muscle ([1]; Muscle): 64% | p16 mRNA, Skin ([1]; Skin): 77% | p21 mRNA, Skin ([1]; Skin): 68% | p16 mRNA, asWAT ([1]; asWAT): 67% | p21 mRNA, asWAT ([1]; asWAT): 79% | p16 mRNA, eWAT ([1]; eWAT): 65% | p21 mRNA, eWAT ([1]; eWAT): 55% | p16 mRNA, iBAT ([1]; iBAT): 72% | p21 mRNA, iBAT ([1]; iBAT): 80% | p16 mRNA, iWAT ([1]; iWAT): 61% | p21 mRNA, iWAT ([1]; iWAT): 51% | CXCL1 mRNA (%), Liver ([2]; Liver): 68 (±14.8) % | CXCL10 mRNA (%), Liver ([2]; Liver): 75 (±4.1) % | IL1β mRNA (%), Liver ([2]; Liver): 73 (±3.5) % | IL6 mRNA (%), Liver ([2]; Liver): 64 (±7.5) % | CXCL1 mRNA (%), eWAT ([2]; eWAT): 74 (±4.7) % | CXCL10 mRNA (%), eWAT ([2]; eWAT): 69 (±7.0) % | IL1β mRNA (%), eWAT ([2]; eWAT): 56 (±11.2) % | IL6 mRNA (%), eWAT ([2]; eWAT): 55 (±15.1) % | Activin A ([3]; untreated 100 (±7.5)): 61.7 (±14.0) % | IL6 ([3]; untreated 100 (±11.6)): 53.9 (±15.4) % | p16 mRNA (%), Kidney ([4]; Kidney): 78 (±7.7) % | p21 mRNA (%), Kidney ([4]; Kidney): 75 (±5.8) % | p16 mRNA (%), Liver ([4]; Liver): 62 (±7.5) % | p21 mRNA (%), Liver ([4]; Liver): 64 (±11.7) % | p16 mRNA (%), eWAT ([4]; eWAT): 55 (±11.5) % | p21 mRNA (%), eWAT ([4]; eWAT): 71 (±8.8) %
